The values that follow come from patent US20170368054A1, “Treatment of Glaucoma Using Laquinimod” (Teva Pharmaceutical Industries, Ltd., priority 2013, published 2017).

Where “and” joins values, the source holds several entries; their conditions need not be identical. Identical values can stand only once. Entries after “also recorded” stand apart in the source; their conditions may differ.

Test [1] relates to retinal ganglion cells (RGC). The experiment in a line: Fluoro-Gold labeled RGC survival in rat hypertonic saline injection glaucoma model. The class given is in vivo, Brown Norway rats (Rattus norvegicus). As to conditions: for Mean % RGC Loss (100-(100 x OHT/Non-OHT Mean RGC Counts per Retina)): OHT vs non-OHT retina, 5 weeks after 2nd HSI, vehicle 34.8. The text has this:
The purpose of this study was to assess the efficacy of laquinimod in protecting against chronic ocular hypertension (OHT) and RGC degeneration in a rat model of glaucoma, created by injecting hypertonic saline into the episcleral veins in one eye of the Brown Norway rat. In this model, RGC degeneration occurs in response to increased IOP and OHT similar to that in human patients with glaucoma. The rat model of chronic ocular hypertension (OHT)/glaucoma was created in the left eye of each animal via two hypertonic saline injections (HSI) each one week apart. The un-injected right eye served as the control. Throughout the study, the vehicle control and the test articles were prepared weekly. Rats were dosed once daily for oral administration (Group 5) and twice daily for topical administration groups (Groups 1-4), starting on the day of the first HSI until euthanasia. Detailed ocular examinations were performed one week after the 2nd HSI and on the day of euthanasia. […] Post-dose IOP was measured weekly for 5 weeks starting one week after the 2nd HSI until euthanasia. Animals were euthanized 5 weeks after the 2nd HSI. The retinas were flat-mounted, slide IDs were masked and 8 regions per retina were imaged using a confocal microscope. RGC at these regions were counted using the Image J software. After the optic nerves were extracted, they were plastic-embedded, sectioned and stained with Toluidine Blue at Schepens Eye Research Institute, Boston, Mass.. The injury in the optic nerves was evaluated and graded by microscopic examination in a masked fashion. Chronic ocular hypertension (OHT) was created through two hypertonic saline injections (HSI) which were performed one week apart in the left eye. For each HSI, after the rats were anesthetized with a suitable anesthetic, a suture thread was passed through the left eyelid to fix it open. A local anesthetic (e.g., 0.5% Proparacaine HCl Ophthalmic Solution) was applied on the surgery eye topically. The conjunctiva was incised with Vannas scissors to expose an episcleral vein. An occluder ring with a groove was fitted around the left eye to provide unobstructed passage for the selected episcleral vein while obstructing the other episcleral veins. Using a pulled-glass needle, 50-250 μL of 1.8 M hypertonic saline solution was injected into the exposed episcleral vein to scar the aqueous humor outflow pathway in an attempt to elevate IOP. The ring was removed shortly after the injection. The un-operated right eye served as the control. Ophthalmic ointment was applied to both eyes to prevent corneal damage. For each HSI procedure, buprenorphine was administered subcutaneously for approximately 24 hours to manage post-operative pains as appropriate. Clinical observations was performed at least once daily as described in Table 6. Approximately one week prior to euthanasia, RGC was labeled with the retrograde tracer FG. First, animals were sedated with appropriate anesthesia. […] Rats received subcutaneous injections of buprenorphine for approximately 48 hours to manage post-surgery pain as appropriate. The eyes were fixed in 4% paraformaldehyde (PFA) fixative at 4±2° C. for at least 24 hours. Retinas were dissected and flat whole-mounted for confocal visualization and imaging. The actual identification of the retinal flat-mounts was masked prior to confocal imaging. Eight regions per retina were imaged using a confocal microscope and the RGC in each region were counted as follows: Retinal images were evaluated by confocal fluorescence microscopic examination. A three-dimensional view of the x-axis, y-axis, and z-axis were designed and processed using a specific system of image analysis software (Leica Confocal Software) to obtain an image of the viable RGCs labeled with FG. Two areas which were approximately 1.5 mm and 2.75 mm away from the center of the ON head were selected in each retinal quadrant (8 regions per retina) and serial images of the retinal ganglion cell layer were taken by the Confocal Microscope. […]

Test [2] deals with glaucoma human patients. The test is described as follows: Example 2: efficacy of laquinimod for treating patients afflicted with glaucoma. The class given is in vivo. The procedure:
Example 2: Assessment of Efficacy of laquinimod for Treating Patients Afflicted with Glaucoma Periodic (e.g., daily or twice daily) administration of laquinimod (oral or topical) is effective in treating glaucoma human patients. Periodic (e.g., daily or twice daily) administration of laquinimod (oral or topical) is effective to reduce a glaucoma-associated symptom in the subject. A laquinimod composition as described herein is administered systematically or locally to the eye of a subject suffering from glaucoma. The administration of the composition is effective to treat the subject suffering from glaucoma. The administration of the composition is also effective to reduce a glaucoma-associated symptom of glaucoma in the subject.

Test [3] has as its system rat model of chronic ocular hypertension (OHT)/glaucoma. The experiment in a line: Intraocular pressure (IOP) measurement, Tono-Pen Vet tonometer, rat OHT model. It counts as in vivo, Brown Norway rats (Rattus norvegicus). As to conditions: average of 5 weekly post-HSI measurements, groups matched for Mean ΔIOP. On the procedure:
For each IOP measurement time-point following the 2nd HSI, the IOP elevation was calculated as the difference between the IOP in the left eye with OHT and that in the non-OHT right eye (ΔIOP). The ΔIOP for the 5 weekly post-HSI IOP measurements were averaged and constituted the Mean ΔIOP for each animal. […] Other animals were removed from the study. Baseline IOP measurements were taken before the initial dose administration. After application of topical anesthesia (0.5% Proparacaine HCl Ophthalmic Solution), IOP was measured on conscious rats on both eyes using a Tono-Pen Vet tonometer (Reichert, Inc.; Depew, N.Y.). Ten (10) IOP readings are recorded from each eye and averaged. IOP measurements were taken around the same time (e.g., between 10 a.m. and 2 p.m.) across measurement time-points to minimize the circadian variability of IOP. IOP measurements were taken once weekly starting one week after the second HSI until euthanasia (a total of 5 measurements). After application of topical anesthesia (0.5% Proparacaine HCl Ophthalmic Solution), IOP was measured on conscious rats on both eyes using a Tono-Pen Vet tonometer (Reichert, Inc.; Depew, N.Y.). For each time-point, ten (10) IOP readings were recorded from each eye and averaged. IOP measurements were taken around the same time (e.g., between 10 a.m. and 2 p.m.) across measurement time-points to minimize the circadian variability of IOP. The IOP measurements were evaluated as follows: For each time-point following the HSI, the IOP elevation was calculated as the difference between the level in the left eye with OHT and that in the normal right eye (ΔIOP). The ΔIOP of the 5-weekly post-HSI IOP measurements were averaged and constitute the Mean ΔIOP for each animal. For each group, ten (10) animals with a sustained IOP elevation in the OHT eye were selected from a larger pool and groups are matched for the Mean ΔIOP. Other animals were removed from the study and euthanized. […] For each time-point following the HSI, the IOP elevation was calculated as the difference between the level in the left eye with OHT and that in the normal right eye (ΔIOP). The ΔIOP of the 5-weekly post-HSI IOP measurements were averaged and constitute the Mean ΔIOP for each animal. For each group, ten (10) animals with a sustained IOP elevation in the OHT eye were selected from a larger pool and groups were matched for the Mean ΔIOP. Other animals were removed from the study and euthanized.

Setting [4] is: human subject with glaucoma, systemic or local administration to the eye.

On to `CCN(C(=O)c1c(O)c2c(Cl)cccc2n(C)c1=O)c1ccccc1` [Laquinimod], for which the “FG-Labeled RGC counts per mm2, OHT vs Non-OHT retinas, two-tailed paired-t test” value in test [1] (Group 1, 1% Laquinimod topical, P=0.189) is given as “no statistically significant difference”; in test [1] (Group 3, 4% Laquinimod topical, P=0.071), “statistically marginally different”; in test [1] (Group 4, 0.25% Laquinimod topical, P=0.033), “fewer RGCs in the OHT eye”; in test [1] (Group 5, 0.1% Laquinimod oral, P=0.075), “statistically marginally different”. For the same compound, the “Mean % RGC Loss (100-(100 x OHT/Non-OHT Mean RGC Counts per Retina))” value in test [1] (Group 1, topical 1% laquinimod twice daily) is 17.6±33.8% and 17.6%; in test [1] (Group 3, topical 4% laquinimod twice daily) it was 26.8±36.4% and 26.8%; in test [1] (Group 4, topical 0.25% laquinimod twice daily), 21.6±21.7% and 21.6%; in test [1] (Group 5, oral 0.1% laquinimod once daily (1 mL)), 22.9±33.1% and 22.9%. In addition, the “RGC counts in OHT and Non-OHT eyes versus groups, Two-Way ANOVA eye versus group interaction” value in test [1] (all groups (0.25%, 1%, 4% topical, 0.1% oral, vehicle), P=0.919) is listed as “groups did not differ”. For the same compound, the “Neuroprotection for the RGC (conclusion from RGC counts)” value in test [1] (daily topical application of 1% Laquinimod, Group 1) is “may be neuroprotective; also recorded: trend towards neuroprotection”. For the same compound, the “Treating glaucoma / reducing a glaucoma-associated symptom” value in test [2] (human patients, periodic (e.g. daily or twice daily) oral or topical administration) was “effective”. Further, in test [2] (setting [4]), the “Reduction of RGC damage and/or RGC loss, improvement of RGC viability” value is reported as “effective to reduce RGC damage and/or RGC loss”. For the same compound, the “Reduction of intraocular pressure” value in test [2] (setting [4]) is reported as “effective to reduce intraocular pressure”. The “Mean ΔIOP (OHT minus Non-OHT) (Mean±SD)” value in test [3] (Group 1, topical 1% laquinimod) was determined as 9.1±2.2 mmHg; in test [3] (Group 3, topical 4% laquinimod), 9.3±2.7 mmHg; in test [3] (Group 4, topical 0.25% laquinimod), 9.2±1.5 mmHg; in test [3] (Group 5, oral 0.1% laquinimod) it was 9.1±2.9 mmHg.
